Targets include HLA-DR DRB1*0101 (DR1) (Homo sapiens, UniProt P01903+P01911, A100R/D57E/F55L/F60I/F76Y/I96L/L162R/M171V/P40L/Q125E/R42F/V115G/Y59C); HLA-DR DRB1*0301 (DR3) (Homo sapiens, UniProt P01903+P01911, A100K/A102G/A103R/A169T/F55Y/I96L/K41T/L162R/M171V/P40S/Q125H/Q178H/Q39Y/R42S/S66N/T106N/T262R/W38E/Y61H); HLA-DR DRB1*0401 (DR4) (Homo sapiens, UniProt P01903+P01911, A100K/A169T/F76Y/I96L/K127E/L162R/M171V/N62H/P40V/Q125Y/R42H/S133A/S149N/S66Y/V115G/V209L/W38E); HLA-DR DRB1*0405 (DR4) (Homo sapiens, UniProt P01903+P01911, A100R/A169T/D86S/F76Y/I96L/K127E/L162R/M171V/N62H/P40V/Q125Y/R42H/S133A/S149N/S66Y/V115G/V209L/W38E); HLA-DR DRB1*0701 (DR7) (Homo sapiens, UniProt P01903+P01911, A100R/A102G/A103Q/D57E/D86V/E43K/F76Y/K127E/L162R/M171V/P40G/Q125H/Q99D/R33Q/R42Y/R54Q/S133A/S66F/T210M/V115G/Y107V/Y59L/Y89S); HLA-DR DRB1*0901 (DR9) (Homo sapiens, UniProt P01903+P01911, A100R/A103E/D57H/D86V/F55Y/F60I/F76Y/I96F/K127E/L162R/M171V/P40D/Q125H/Q99R/R33Q/R42F/S133A/S66N/T210M/V115G/W38K/Y107V/Y59G/Y89S).

Common to all, as to assay: biochemical
Holding throughout (type): binding

The target in another assay is HLA-DR DRB1*1302 (DR13) (Homo sapiens, UniProt P01903+P01911, A100E/A169T/K41T/L162R/M171V/P40S/Q125H/Q178H/Q39Y/Q99D/R42S/S66N/T262R/V115G/W38E/Y61H). The conditions noted are these: DRBI *1302.
The target of a further assay is HLA-DR DRB4*0101 (DR53) (Homo sapiens, UniProt P01903+P13762, G164S). The conditions noted are these: DRB4 *0101.
In a further assay the target is HLA-DR DRB1*1501 (DR15) (Homo sapiens, UniProt P01903+P01911). The conditions noted are these: DRBI *1501.
Another assay has as its target HLA-DR DRB5*0101 (DR51) (Homo sapiens, UniProt P01903+Q30154). The conditions noted are these: DRB5 *0101.
The next assay addresses HLA-DR DRB1*1101 (DR11) (Homo sapiens, UniProt P01903+P01911, A100R/A169T/A87E/I96F/K41T/L162R/M171V/P40S/Q125H/Q178H/Q39Y/Q99D/R42S/S66Y/T262R/V115G/W38E). The conditions noted are these: DRB1 *1101.

Like-named read-outs stand apart in the source and are kept apart here. No end group written: not given here.

Sequence of HLA-DR DRB1*1302 (DR13) (P01903 26-254 limits assumed, other chains not shown): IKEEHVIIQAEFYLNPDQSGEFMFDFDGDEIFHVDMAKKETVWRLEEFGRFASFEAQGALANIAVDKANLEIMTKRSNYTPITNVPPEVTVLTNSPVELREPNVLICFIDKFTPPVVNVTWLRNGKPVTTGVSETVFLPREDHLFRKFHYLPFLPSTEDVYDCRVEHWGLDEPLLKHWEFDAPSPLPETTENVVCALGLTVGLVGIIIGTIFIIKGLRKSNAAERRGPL
Sequence of HLA-DR DRB1*0301 (DR3) (P01903 26-254 limits assumed, other chains not shown): as above
Sequence of HLA-DR DRB1*1101 (DR11) (P01903 26-254 limits assumed, other chains not shown): as above

Regarding `CC[C@H](C)[C@H](N)C(=O)N[C@@H](CCCNC(=N)N)C(=O)N[C@H](C(=O)N[C@@H](CC(C)C)C(=O)N[C@@H](CCC(=O)O)C(=O)N[C@@H](CC(=O)O)C(=O)N[C@@H](CC(C)C)C(=O)N[C@@H](CC(C)C)C(=O)N[C@@H](CCSC)C(=O)NCC(=O)N[C@H](C(=O)N[C@@H](CC(C)C)C(=O)NCC(=O)N[C@H](C(=O)N[C@H](C(=O)O)C(C)C)[C@@H](C)CC)[C@@H](C)O)[C@@H](C)O`, the IC50 at HLA-DR DRB1*0101 (DR1) (DRB1 *0101) is 16 nM; against HLA-DR DRB1*0301 (DR3), 5210 nM; against HLA-DR DRB1*0401 (DR4) (DRB1 *0401) it was 95 nM; against HLA-DR DRB1*0405 (DR4) (DRB1 *0405) it was 61 nM; on HLA-DR DRB1*0701 (DR7) (DRB1 *0701), 895 nM; against HLA-DR DRB1*0901 (DR9) (DRB1 *0901) it was 1720 nM. Further, the values for the IC50 against HLA-DR DRB1*1302 (DR13) and against HLA-DR DRB4*0101 (DR53) were 789 nM and 23 nM, respectively.

As to DFAFTDLTIVYRDDT, the IC50 on HLA-DR DRB1*0301 (DR3) was found to be 23 nM; against HLA-DR DRB1*0401 (DR4) (DRB1 *0401), 80 nM; against HLA-DR DRB1*0405 (DR4) (DRB1 *0405), 40 nM; at HLA-DR DRB1*0901 (DR9) (DRB1 *0901) it was 1440 nM; against HLA-DR DRB1*1302 (DR13) it was 5010 nM; on HLA-DR DRB1*1501 (DR15), 3650 nM. Besides, the values for the IC50 on HLA-DR DRB4*0101 (DR53) and on HLA-DR DRB5*0101 (DR51) were 21600 nM and 675 nM, respectively.

For the compound LQQLFLSTLSFVCPW, the IC50 amounted to 121 nM at HLA-DR DRB1*0101 (DR1) (DRB1 *0101); 2040 nM against HLA-DR DRB1*0301 (DR3); 94 nM on HLA-DR DRB1*0405 (DR4) (DRB1 *0405); 272 nM on HLA-DR DRB1*0701 (DR7) (DRB1 *0701); 152 nM against HLA-DR DRB1*0901 (DR9) (DRB1 *0901); 11700 nM at HLA-DR DRB1*1101 (DR11). In addition, the IC50 on HLA-DR DRB4*0101 (DR53) worked out at 22 nM; against HLA-DR DRB5*0101 (DR51) it was 36900 nM.

On to RLFDNAMLRAHRL, for which the IC50 was 2.3 nM at HLA-DR DRB1*0101 (DR1) (read-out: DRB1 *0101); 27 nM at HLA-DR DRB1*0301 (DR3) (read-out: DRB1 *0301); 6290 nM on HLA-DR DRB1*0401 (DR4) (read-out: DRB1 *0401); 4250 nM at HLA-DR DRB1*0405 (DR4) (read-out: DRB1 *0405); 3300 nM at HLA-DR DRB1*0701 (DR7) (read-out: DRB1 *0701); over 59500 nM on HLA-DR DRB1*0901 (DR9) (read-out: DRB1 *0901).

For `CC[C@H](C)[C@H](NC(=O)[C@H](CCC(=O)O)NC(=O)[C@H](CC(C)C)NC(=O)[C@H](C)NC(=O)[C@H](CO)NC(=O)[C@H](CO)NC(=O)[C@H](CC(C)C)NC(=O)[C@H](CCC(=O)O)NC(=O)[C@H](Cc1c[nH]cn1)NC(=O)[C@H](CC(C)C)NC(=O)[C@H](CCCCN)NC(=O)[C@H](CCCNC(=N)N)NC(=O)[C@@H]1CCCN1)C(=O)N1CCC[C@H]1C(=O)N[C@@H](Cc1ccc(O)cc1)C(=O)O`, the IC50 was 16100 nM on HLA-DR DRB1*0301 (DR3); 5280 nM against HLA-DR DRB1*0401 (DR4) (DRB1 *0401); 80 nM against HLA-DR DRB1*0405 (DR4) (DRB1 *0405); 213 nM on HLA-DR DRB1*0901 (DR9) (DRB1 *0901); 51 nM against HLA-DR DRB1*1302 (DR13); 1120 nM against HLA-DR DRB1*1501 (DR15). The IC50 at HLA-DR DRB5*0101 (DR51) was over 10700 nM.

As for LRVVQQLLMGALTVT, the IC50 against HLA-DR DRB1*0101 (DR1) (DRB1 *0101) was 5.7 nM; against HLA-DR DRB1*0301 (DR3), 21700 nM; on HLA-DR DRB1*0405 (DR4) (DRB1 *0405) it was 85 nM; on HLA-DR DRB1*0701 (DR7) (DRB1 *0701), 82 nM; against HLA-DR DRB1*0901 (DR9) (DRB1 *0901), 204 nM; on HLA-DR DRB1*1302 (DR13) it was 8.9 nM. Besides, the figures for the IC50 against HLA-DR DRB1*1501 (DR15) and against HLA-DR DRB4*0101 (DR53) were 56 nM and 7.7 nM, respectively.

FVVYRDSIPHAACHK: the IC50 on HLA-DR DRB1*0101 (DR1) (DRB1 *0101) worked out at 587 nM; on HLA-DR DRB1*0301 (DR3), 200 nM; at HLA-DR DRB1*0401 (DR4) (DRB1 *0401), 10 nM; against HLA-DR DRB1*0405 (DR4) (DRB1 *0405) it was 704 nM; on HLA-DR DRB1*0901 (DR9) (DRB1 *0901) it was 2120 nM; at HLA-DR DRB1*1302 (DR13), 1850 nM. Besides, the values for the IC50 on HLA-DR DRB1*1501 (DR15), at HLA-DR DRB4*0101 (DR53) and at HLA-DR DRB5*0101 (DR51) were 349 nM, 18100 nM and 2340 nM, respectively.

GEALSTLVLNRLKVG: the IC50 on HLA-DR DRB1*0101 (DR1) (DRB1 *0101) stood at 719 nM; against HLA-DR DRB1*0301 (DR3) it was 11800 nM; at HLA-DR DRB1*0401 (DR4) (DRB1 *0401), 3050 nM; against HLA-DR DRB1*0405 (DR4) (DRB1 *0405), 14800 nM; against HLA-DR DRB1*0701 (DR7) (DRB1 *0701) it was 3190 nM; against HLA-DR DRB1*0901 (DR9) (DRB1 *0901), 20200 nM. Also, the IC50 on HLA-DR DRB1*1101 (DR11) came to 79 nM; against HLA-DR DRB1*1302 (DR13), 29 nM; at HLA-DR DRB4*0101 (DR53) it was 1020 nM; at HLA-DR DRB5*0101 (DR51), 46 nM.

As for WYRYSVYGTTLEKLT, the IC50 on HLA-DR DRB1*0101 (DR1) (DRB1 *0101) was 163 nM; against HLA-DR DRB1*0301 (DR3), 26600 nM; at HLA-DR DRB1*0401 (DR4) (DRB1 *0401), 249 nM; against HLA-DR DRB1*0405 (DR4) (DRB1 *0405) it was 8.5 nM; against HLA-DR DRB1*0701 (DR7) (DRB1 *0701), 107 nM; on HLA-DR DRB1*0901 (DR9) (DRB1 *0901), 284 nM. The IC50 turned out to be 805 nM against HLA-DR DRB1*1302 (DR13), 421 nM against HLA-DR DRB1*1501 (DR15), 1040 nM against HLA-DR DRB4*0101 (DR53) and 62 nM against HLA-DR DRB5*0101 (DR51).

For the compound DLRVVQQLLMGALTV, the IC50 on HLA-DR DRB1*0101 (DR1) (DRB1 *0101) came out at 8.4 nM; against HLA-DR DRB1*0301 (DR3), 26000 nM; against HLA-DR DRB1*0405 (DR4) (DRB1 *0405), 84 nM; against HLA-DR DRB1*0701 (DR7) (DRB1 *0701), 508 nM; against HLA-DR DRB1*0901 (DR9) (DRB1 *0901), 1840 nM; against HLA-DR DRB1*1302 (DR13) it was 57 nM. Moreover, at HLA-DR DRB4*0101 (DR53), the IC50 came out at 9.5 nM.

(Values after patent publication US20060079453A1, “Hla binding peptides and their uses” (priority 2002, published 2006).)
